Four compounds from paper PMC10216478, “Development of a Non-Peptide Angiotensin II Type 1 Receptor Ligand by Structural Modification of Olmesartan as a Biased Agonist” (Biomedicines, 2023) can be followed below.

For this experiment, the target named is T1, AT1 L112A receptor (Rattus norvegicus, UniProt P25095, L112A).
T1 construct: expressed in transfected cells; host or cells: COS7
T1 sequence (P25095 1-359 L112A): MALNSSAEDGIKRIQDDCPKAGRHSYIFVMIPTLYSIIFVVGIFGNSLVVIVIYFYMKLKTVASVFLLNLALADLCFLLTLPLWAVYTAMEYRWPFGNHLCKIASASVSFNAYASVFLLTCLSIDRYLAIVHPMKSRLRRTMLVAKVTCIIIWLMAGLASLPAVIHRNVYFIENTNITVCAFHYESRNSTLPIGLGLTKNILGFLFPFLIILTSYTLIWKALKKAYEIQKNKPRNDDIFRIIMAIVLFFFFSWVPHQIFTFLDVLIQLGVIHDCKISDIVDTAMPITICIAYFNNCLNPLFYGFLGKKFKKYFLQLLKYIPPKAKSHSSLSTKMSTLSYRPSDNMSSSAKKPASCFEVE
Description: IP production assay in COS7 cells expressing AT1-L112A receptor. Type of experiment: cell-based. Conditions: 1 µM ligands or 0.1 µM Ang II, 30 min, n = 5, vs. (-). As for the experimental part: The synthetic rat AT1 receptor gene, which was cloned in the shuttle expression vector pMT-2, was used for expression and mutagenesis, as described previously. […] In the experiments, cells were grown without a cell-growth supplement. To express the AT1 receptor protein, 10 µg of purified plasmid DNA per 10^7 cells was used in the transfection. Wild-type and mutated AT1 receptors were transiently transfected into cells using Lipofectamine 2000 liposomal reagent (Roche Applied Science, Penzberg, Germany). Cells were plated and grown and were 70–90% confluent at the time of transfection. We incubated plasmid DNA (10 µg)–lipid (10 µL) complexes for 5 min at room temperature and added and incubated the complexes with cells for 24 h. We then analyzed the parameters in transfected cells. […] Transfected cells that had been cultured for 48–72 h were harvested. Cell membranes were prepared using the nitrogen Parr bomb disruption or freeze–thaw methods.
Ligand (such as agonist or antagonist)-induced IP production through the AT1 receptor in transfected COS7 cells transiently expressing the AT1 receptor was measured to evaluate cell signaling as a second messenger for controlling blood pressure, since the increases in the intracellular Ca^2+ concentration were the result of IP accumulation, which indicated vasoconstriction. As a surrogate model with higher levels of AT1 receptor expression, COS7 cells are suitable for IP measurement because it is easy to detect differences in IP production. Cells were labeled for 24 h with [^3H]-myoinositol at 37 °C in DMEM containing 10% FBS. Next, the cells were washed with buffer 3 times and incubated with a medium containing 10 mM LiCl for 20 min; 0.1 µM Ang II or 1 µM ligands were added and incubation was continued for another 30 min at 37 °C. After incubation, the medium was removed, and total soluble IP was extracted from the cells using the perchloric acid extraction method, as described previously. Cells were plated at a field density of 5 × 10^3 cells/cm^2 in 60 mm dishes and cultured in a fresh growth medium at 37 °C in a DMEM 5% CO2 incubator. […] The culture medium was changed 48 h after transfection and 1.5 mL of 1 μCi/mL of [^3H]-myoinositol was added to each 60-mm dish at 37 °C in DMEM containing 10% FBS. After labeling, the cells were washed with buffer 3 times and incubated with a medium containing 10 mM LiCl for 20 min. The indicated concentration of ligands was added and incubation was continued for an additional 30 min at 37 °C. After incubation, the medium was removed, and total soluble IP was extracted from the cells using the perchloric acid extraction method. Total IP production was expressed as the sum of radioactivity, as described previously.
As to `CCCc1nc(C(C)(C)O)c(C(=O)O)n1Cc1ccc(-c2cc(Cc3ccc(O)cc3)ccc2-c2nnn[nH]2)cc1` [R781253], the “Effect on IP production” value is “none of the compounds (R239470, R781253, and R794847) affected IP production”. Take `CCCc1nc(C(C)(C)O)c(C(N)=O)n1Cc1ccc(-c2cc(Cc3ccc(O)cc3)ccc2-c2nnn[nH]2)cc1` [R794847]: the “Effect on IP production” value is “none of the compounds (R239470, R781253, and R794847) affected IP production”. Consider `CCCc1nc(C(C)(C)O)c(C(=O)O)n1Cc1ccc(-c2ccccc2-c2nnn[nH]2)cc1` [Olmesartan, olmesartan], for which the “Effect on IP production” value is reported as “significant reduction in basal IP production levels”.

Regarding `CCCc1nc(C(C)(C)O)c(C(N)=O)n1Cc1ccc(-c2ccccc2-c2nnn[nH]2)cc1` [R239470], the “Effect on IP production” value was “none of the compounds (R239470, R781253, and R794847) affected IP production”.
